Results on one compound are retold here after paper PMC9720492 (2022).

This assay deals with wHTel-26 (DNA, G4) TTAGGGTTAGGGTTAGGGTTAGGGTT
Briefly: CD melting. The settings on record: 100 mM KCl; 10 mM phosphate, 1 mM EDTA, pH 7.0; 20 µM DNA, D/N 5.0.

Turning to `CCN(CC)CCC(=O)Nc1ccc2c(c1)C(=O)c1ccc(NC(=O)CCN(CC)CC)cc1C2=O`, the Tm is 10–13 (±2) °C.
